Assay results from publication PMC12388523, “Flavonoids and Sesquiterpene Lactones from Lychnophora ericoides (Arnica-Do-Cerrado) and Their In Vitro Effects on Multiple Myeloma and Acute Myeloid Leukemia” (Metabolites, 2025).

What was measured:
[1] = tested on: HL-60 cells; assay: Proliferation, [3H]-thymidine uptake, HL-60; format: cell-based
Procedure: (§1) Acute myeloid leukemia cell line HL-60 and multiple myeloma cell lines AMO-1 and KMS-12-PE were obtained from the German Collection of Microorganisms and Cell Cultures (DSMZ), Braunschweig, Germany, and non-tumorigenic stromal cell line HS-5 was acquired from the American Type Culture Collection (ATCC, Manassas, VA, USA). All cell lines were cultured in RPMI 1640 medium without phenol red (Pan Biotech, Aidenbach, Germany), supplemented with 2 mM glutamine, 100 U/mL penicillin, 100 µg/mL streptomycin (Sigma-Aldrich, St. Louis, MO, USA), and 10% fetal bovine serum (FBS Maximus, Catus Biotech GmbH, Tutzing, Germany) at 37 °C in a humidified atmosphere of 5% CO2/95% air. Cells were fed twice weekly. Logarithmically growing cells were resuspended at 1 × 10^5 cells/mL, plated in triplicate in round-bottom 96-well plates (100 µL per well; Falcon, Becton Dickinson, Franklin Lakes, NJ, USA), and incubated at 37 °C in 5% CO2/95% air for 2 h. Subsequently, the compounds were adjusted in the cell culture medium to reach the final concentrations in a total volume of 150 µL and incubated for an additional 72 h. Cell proliferation was assessed by [^3H]-thymidine uptake. Each well was exposed to 2 µCi [^3H]-thymidine (Hartmann Analytic, Braunschweig, Germany) during the final 12–16 h of incubation. Cells were harvested using a semi-automated device, and [^3H]-thymidine incorporation (expressed in counts per minute, cpm) was measured with a scintillation counter (MicroBeta TriLux, PerkinElmer, Waltham, MA, USA). Metabolic activity was assessed by resazurin staining. Resazurin (Carl Roth, Karlsruhe, Germany) was dissolved in distilled water at a concentration of 0.1 mg/mL, and 15 µL of this solution was added to each well, followed by a 2 h incubation at 37 °C. Relative fluorescence units (RFUs) were measured using a Synergy H1 plate reader equipped with a 560 nm excitation/590 nm emission filter set (BioTek; Agilent, Santa Clara, CA, USA). Proliferation and metabolic activity in the absence of compounds were defined as 100% (control), and the values for compound-treated samples were expressed as percentages relative to the control. Selectivity indices were calculated by dividing the IC50 value of each compound against HS-5 cells through the IC50 values against the investigated cell lines.
(§2) The Wilcoxon Rank Sum Test was used to analyze proliferation and metabolic activity in the absence and presence of varying compound concentrations (NCSS 2007 software, version 07.1.2, Kaysville, UT, USA). A p-value < 0.05 was considered statistically significant. IC50 values were calculated using GraphPad Prism 10.1.2. This software reports 95% confidence intervals instead of standard errors. […] Nonetheless, the figures clearly illustrate the IC50 values due to the narrow concentration range tested.

[2] = tested on: CEM; set-up: method as in PMID 15577239; conditions: cited from earlier work
[3] = tested on: NF-κB p65; set-up: method as in PMID 22685350; conditions: read-out: concentration inhibiting NF-κB p65; cited from earlier work
[4] = tested on: MOLM-13 cells; assay: Proliferation, [3H]-thymidine uptake, MOLM-13; format: cell-based
Procedure: [The source words this procedure for another cell line and reports this cell line under the same test.] as §1, §2

[5] = tested on: KMS-12-PE cells; assay: Metabolic activity, resazurin staining, KMS-12-PE; format: cell-based
Procedure: as §1, §2
Proliferation inhibition often leads to cell death. Therefore, the cytotoxic activity of the compounds was further evaluated using a modified 3-(4,5-dimethylthiazol-2-yl)-2,5-diphenyltetrazolium bromide (MTT) assay, the resazurin (Alamar Blue) assay. Metabolically active cells reduce the non-fluorescent dye resazurin to the fluorescent dye resorufin via mitochondrial reductase activity, which correlates with cell viability. In the first step the metabolic activity of the four isolated flavonoids was investigated, showing a dose-dependent reduction, but to a much lower extent than in the proliferation assays (Table A2). In fact, only 7,3′,4′-trimethoxymyricetin (2) inhibited the metabolic activity of all four cell lines by more than 50% at a concentration of 100 µM.

[6] = tested on: myelomonocytic chicken cell line HD11-C3; set-up: method as in PMID 23501116; conditions: read-out: IC50 cytotoxic activity; cited from earlier work
[7] = tested on: HL-60, MOLM-13, AMO-1, and KMS-12 PE cancer cells; assay: Metabolic activity, range over the four tested cancer cell lines; format: cell-based; conditions: HL-60, MOLM-13, AMO-1, KMS-12 PE; read-out: IC50 inhibition of metabolic activity, range over cell lines
Procedure: Acute myeloid leukemia cell line HL-60 and multiple myeloma cell lines AMO-1 and KMS-12-PE were obtained from the German Collection of Microorganisms and Cell Cultures (DSMZ), Braunschweig, Germany, and non-tumorigenic stromal cell line HS-5 was acquired from the American Type Culture Collection (ATCC, Manassas, VA, USA). All cell lines were cultured in RPMI 1640 medium without phenol red (Pan Biotech, Aidenbach, Germany), supplemented with 2 mM glutamine, 100 U/mL penicillin, 100 µg/mL streptomycin (Sigma-Aldrich, St. Louis, MO, USA), and 10% fetal bovine serum (FBS Maximus, Catus Biotech GmbH, Tutzing, Germany) at 37 °C in a humidified atmosphere of 5% CO2/95% air. […] Cell proliferation was assessed by [^3H]-thymidine uptake. […] Cells were harvested using a semi-automated device, and [^3H]-thymidine incorporation (expressed in counts per minute, cpm) was measured with a scintillation counter (MicroBeta TriLux, PerkinElmer, Waltham, MA, USA). Metabolic activity was assessed by resazurin staining. […] Relative fluorescence units (RFUs) were measured using a Synergy H1 plate reader equipped with a 560 nm excitation/590 nm emission filter set (BioTek; Agilent, Santa Clara, CA, USA). Proliferation and metabolic activity in the absence of compounds were defined as 100% (control), and the values for compound-treated samples were expressed as percentages relative to the control. […]

In the case of C=C(C)C(=O)O[C@H]1C[C@@]2(C)OC(=CC2=O)/C(CO)=C\[C@H]2OC(=O)C(=C)[C@H]12 [Compound 5, goyazensolide], the IC50 ([1]; Homo sapiens, HL-60, 72 h, 95% confidence interval in brackets, read-out: IC50 inhibition of proliferation) is given as 1100 nM, the “Selectivity index (proliferation)” value ([1]; IC50 HS-5 / IC50 HL-60) is given as 1.8 and the IC50 [2] is given as 170 nM. The IC50 [3] was 3800 nM, the IC50 ([4]; Homo sapiens, MOLM-13, 72 h, 95% confidence interval in brackets, read-out: IC50 inhibition of proliferation) was 1000 nM and the “Selectivity index (proliferation)” value ([4]; IC50 HS-5 / IC50 MOLM-13) was 2.0. The IC50 ([5]; Homo sapiens, KMS-12-PE, 72 h, resazurin, 95% confidence interval in brackets, read-out: IC50 inhibition of metabolic activity) was 1900 nM, the “Selectivity index (metabolic activity)” value ([5]; IC50 HS-5 / IC50 KMS-12-PE) was 1.4 and the IC50 [6] was 10000 nM. For the same molecule, the IC50 [7] was 1000 to 2000 nM.
